Assay results as given in patent US10980238B2, “Alkali metal salt for use in treatment of varroa destructor mite infestation of honey bees” (Universität Hohenheim, priority 2015, dated 2021).
“And” between values parts separate entries of the source, which are not always exact repeats. Identical values can stand only once.

Legend:
bees [1] = conditions: 50 bees per cage, mean of 6 cages (LiCl) or 3 cages
Experimental: (§1) In a further experiment LiCl, NaCl and MgCl2 were selected and their acaricidal activity compared. The experiment was performed in cages of 50 bees, to each of which 25 mites were added. Bees in control cages received sucrose only. LiCl, NaCl or MgCl2 were added to 70% sucrose solutions at a final concentration of 25 mM each and fed to the bees for seven days. Survival rate of bees and mites were monitored daily. Dead bees and mites were removed from the cages.
(§2) The numbers represent mean values derived from 6 cages. […] Numbers for NaCl, MgCl2 and control represent mean values derived from 3 separate cages.

Varroa destructor [2] = assay: Experiment 2 cage test (50 bees, 20 mites): dead mites; type: in vivo; conditions: 25 mM in 70% sucrose
Experimental: (§6) The next set of experiments was carried out in plastic container with 50 bees and 20 mites each. Bees were fed the same amount of unspecific dsRNA that has been used in previous assays in 70% sucrose solution, LiCl at a concentration of 25 mM in 70%, sucrose solution, and 70% sucrose solution only.

Varroa destructor [3] = assay: Experiment 3 dose response cage test (50 bees, 25 mites): mite survival; type: in vivo
Experimental: (§3) LiCl was added to 70% sucrose solution to final concentrations of 16 μM, 80 μM, 400 μM, 2 mM, 10 mM, 50 Mm, and 250 mM, respectively. 2 ml of the respective solution was fed to the bees, if the sucrose/LiCl solution was entirely ingested additional sucrose syrup was offered ad libidum. Uptake of LiCl solution as well as survival rate of bees and mites was monitored 3 times daily (morning, noon, evening). Additionally, the healthiness of bees was scored based on characteristic behavioral features. LiCl was administered until all mites were dead, and the experiment continued with plain sucrose syrup to record the response of bees over the entire 2 weeks of the experiment. For control bees treated with sucrose syrup only, 9 mites died within the course of the experiment with even timely distribution of the events, indicating natural death of mites. 26 bees died in the same period of time. In view of the life span of a worker bee (4 weeks) this relates to the natural death rate that can be expected in a time span of 14 days. However, 12 bees were lost in a single day equaling almost 50% of the total bee loss in this control experiment. […] For that reasons the sudden loss of bees on day 14 is considered to result from a mistake in bee treatment as feeding inappropriate amounts of sucrose syrup. (See FIG. 4, dotted red line)
(§4) Additionally, we set out to test activity of a single dose on mite viability. Sucrose with 25 mM LiCl was fed to a cage of 50 bees infested with 25 mites and monitored as described above. […] As such, a single dose of LiCl can be used to kill mites under the described conditions.
(§5) To explore the upper limit of dosage and limits of tolerability of bees we fed sucrose containing 100 mM of LiCl as only food source over 14 days. […] In view of the latter results the effective window for concentration and administration and regimen of LiCl is sufficiently large to elevate low but effective concentrations (10 mM) more than 10 fold or prolong the time of administration substantially without negative impact on bee health.

bees [4] = conditions: 25 mM in 70% sucrose; 50 bees
Experimental: as §6

bees [5] = assay: Experiment 3 dose response cage test (50 bees, 25 mites): bee survival and health; type: in vivo, Apis mellifera
Experimental: as §3, §4, §5

honey bee larvae = assay: Experiment 8 larval development in vitro; type: in vivo, Apis mellifera
Experimental: In order to assess the effect of LiCl on larval development in vitro, larvae were obtained by caging the queen for 24 h on broodless combs in the colony. After 5 to 6 days when the larvae reached the age of about 48 h they were transferred to petri dishes filled with larval food. The petri dishes were placed in plastic boxed filled with 8% sulfuric acid in order to prevent fungi infection and kept in a chamber at 34° C. and 95% relative humidity. The larvae were fed as needed with a mixture consisting of 53% royal jelly, 4% glucose, 8% fructose, 1% yeast extract and water (control). For samples treated with LiCl, 10 mM, 25 mM or 50 mM LiCl were added to the mixture. Prior to the pupa phase, the larvae were placed on a tissue for defecating which occurred approximately on day 9. Afterwards larvae were placed in well plates until hatching. Larvae mortality was monitored on a daily basis.

Varroa mites = assay: Experiment 5 cage comparison of LiCl, NaCl and MgCl2: dead mites; type: in vivo, Varroa destructor
Experimental: as §1, §2

Varroa destructor [6] = assay: Experiment 7 mini-hives (2000 to 3000 bees), semi-field conditions; type: in vivo; conditions: remaining mites killed with Perizin and counted
Experimental: In order to investigate if the miticidal effect of LiCl can also be detected under semi-field conditions, so-called “mini-hives” consisting of 2000 to 3000 bees each were treated with LiCl.
LiCl was dissolved in 70% sucrose to final concentrations of 2 mM, 10 mM and 25 mM. Each concentration was replicated 6 times and fed to the bees for 23 days. Dead mites were documented daily. After 23 days of LiCl treatment, remaining mites were killed with Perizin® (commercial product containing the active ingredient coumaphos) and counted (see Table 4 “Remaining mites”).

Varroa destructor [7] = assay: Experiment 9 artificial swarms: mite fall; type: in vivo; conditions: 25 mM or 50 mM
Experimental: Six artificial swarms were fed with sucrose/LiCl after a starving phase of several hours. LiCl was dissolved in sucrose at final concentrations of 25 mM and 50 mM. Each artificial swarm received 500 ml of the sucrose/LiCl mixture in a feeding balloon. The total volume of sucrose/LiCl solution was consumed by the bees. Mite fall was monitored for 7 days. Afterwards, bees were treated with Perizin® to assess the number of remaining mites.

[8] = 25 mM in 70% sucrose for seven days
[9] = 100 mM as only food source over 14 days
[10] = 250 mM in 70% sucrose, 25 mites
[11] = 25 mM in 70% sucrose for seven days, 25 mites per cage, mean of 6 cages (LiCl) or 3 cages

## [Cl-].[Li+] [LiCl, lithium chloride]
Bees [1]; [8]
  Number of dead bees, Day 1: 0.2
  Number of dead bees, Day 2: 0.2
  Number of dead bees, Day 3: 0.3
  Number of dead bees, Day 4: 0.8
  Number of dead bees, Day 5: 0.5
  Number of dead bees, Day 6: 1.0
  Number of dead bees, Day 7: 0.2
Bees [1]; 25 mM in 70% sucrose, days 1-7
  Number of dead bees, Sum: 3 and 3.2
Varroa destructor [2]
  mites dead after 24 h: 4 mites
  mites dead after 48 h: 15 mites
  mites dead after 72 h: 20 mites
Varroa destructor [3]; 2 mM, 25 mites, 2 weeks
  mites that survived the treatment: 11 mites
Varroa destructor [3]; 10 mM in 70% sucrose, 25 mites
  time in which all mites were killed: ≤ 48 h
Varroa destructor [3]; 10 mM, 25 mites
  additional mites found dead at the end of the experiment: 2 mites
  dead mites, day 1: 3 mites
  dead mites, day 2: 10 mites
  dead mites, day 3: 7 mites
  dead mites, day 4: 3 mites
Varroa destructor [3]; 50 mM in 70% sucrose, 25 mites
  time to all mites dead: 48 h
Varroa destructor [3]; [9]
  effect on mites: effectively killed
Varroa destructor [3]; [10]
  mites lost between 30 h and 48 h: 21/25
  time to loss of all mites: ≤ 48 h
Varroa destructor [3]; concentrations lower than 2 mM (16 μM, 80 μM, 400 μM), data not shown
  impact on viability of mites: only marginally impacted the viability of mites
Varroa destructor [3]; concentrations of 10 mM and higher
  time to eliminate all mites: ≤ 4 days
Varroa destructor [3]; single dose of sucrose with 25 mM, 50 bees, 25 mites
  time in which mites were effectively killed: ≤ 72 h
Bees [4]
  effect on bees within the first 4 days of treatment: not affected
Bees [5]; 2 mM over a period of 2 weeks
  tolerance by bees: without pronounced decrease in viability
Bees [5]; 2 mM, 50 bees, 2 weeks
  bees that survived the treatment: 42 bees
Bees [5]; 10 mM, 50 bees, 2 weeks
  bees alive at the end of the experiment: 34 bees
Bees [5]; 50 mM, 50 bees
  tolerability by the bees: good tolerability
Bees [5]; 50 mM, 50 bees, 2 weeks
  bees lost in the timespan of the entire experiment: 20 bees
Bees [5]; [9]
  effect on bees: time delayed continuous loss of bees
Bees [5]; 250 mM until all mites dead, then sucrose only, 50 bees
  average rate of bee loss: 3 bees per day
Bees [5]; 250 mM until all mites dead, then sucrose only, 50 bees, 2 weeks
  bees lost in total: 27 bees
Bees [5]; single dose of sucrose with 25 mM, entire experiment
  impact on bee health: no negative impact on bee health
Honey bee larvae; 10 mM added to larval food
  Survival rate (%) of larvae or pupae: 0%
Honey bee larvae; 10 mM, 25 mM or 50 mM added to larval food
  time in which all larvae were lost: ≤ 72 h
Honey bee larvae; 25 mM added to larval food
  Survival rate (%) of larvae or pupae: 0%
Honey bee larvae; 50 mM added to larval food
  Survival rate (%) of larvae or pupae: 0%
Varroa mites; [8]
  acaricidal effect: strong acaricidal effect
Varroa mites; [11]
  Number of dead mites, Day 1: 0.3
  Number of dead mites, Day 2: 2.2
  Number of dead mites, Day 3: 19.2
  Number of dead mites, Day 4: 3.0
  Number of dead mites, Day 5: 0.3
  Number of dead mites, Day 6: 0.0
  Number of dead mites, Day 7: 0.0
Varroa mites; 25 mM in 70% sucrose, days 1-7, 25 mites per cage, mean of 6 cages (LiCl) or 3 cages
  Number of dead mites, Sum: 25.0
Varroa destructor [6]; 2 mM in 70% sucrose for 23 days
  Remaining mites: 234
Varroa destructor [6]; 10 mM in 70% sucrose for 23 days
  Remaining mites: 54
Varroa destructor [6]; 25 mM in 70% sucrose for 23 days
  Remaining mites: 24
Varroa destructor [7]
  acaricidal efficacies for all six swarms: above 80%
